Measurements published in patent US20100267561A1, “HERBICIDAL PYRIDAZINONE DERIVATIVES” (priority 2007, published 2010).

What was measured:
Assay type in all cases: in vivo
[1] = test system: wheat (Triticum aestivum); assay: Test A pre-/postemergence plant response
Procedure, shortened: (§1)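 Scores reflect visual plant injury relative to untreated controls on a 0–100 scale, recorded approximately 10 days after simultaneous preemergence soil spraying and postemergence spraying of one- to two-leaf seedlings grown in loam–sand.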

[2] = test system: giant foxtail (Setaria faberi); assay: Test A pre-/postemergence plant response
Procedure, shortened: as §1

[3] = test system: pigweed (Amaranthus retroflexus); assay: Test A pre-/postemergence plant response
Procedure, shortened: as §1

[4] = test system: large crabgrass (Digitaria sanguinalis); assay: Test A pre-/postemergence plant response
Procedure, shortened: as §1

[5] = test system: corn (Zea mays); assay: Test A pre-/postemergence plant response
Procedure, shortened: as §1

[6] = test system: barnyardgrass (Echinochloa crus-galli); assay: Test A pre-/postemergence plant response
Procedure, shortened: as §1

[7] = test system: blackgrass (Alopecurus myosuroides); assay: Test B pre-/postemergence plant response
Source text: (§2) Seeds of plant species selected from blackgrass (Alopecurus myosuroides), downy bromegrass (Bromus tectorum), green foxtail (Setaria viridis), Italian ryegrass (Lolium multiflorum), wheat (Triticum aestivum), wild oat (Avena fatua), catchweed bedstraw (Galium aparine), bermudagrass (Cynodon dactylon), surinam grass (Brachiaria decumbens), cocklebur (Xanthium strumarium), corn (Zea mays), large crabgrass (Digitaria sanguinalis), woolly cupgrass (Eriochloa villosa), giant foxtail (Setaria faberii), goosegrass (Eleusine indica), johnsongrass (Sorghum halepense), kochia (Kochia scoparia), lambsquarters (Chenopodium album), morningglory (Ipomoea coccinea), eastern black (E.B.) nightshade (Solanum ptycanthum), yellow nutsedge (Cyperus esculentus), pigweed (Amaranthus retroflexus), common ragweed (Ambrosia elation), Russian thistle (Salsola iberica), soybean (Glycine max), common (oilseed) sunflower (Helianthus annuus), and velvetleaf (Abutilon theophrasti) were planted and treated preemergence with test chemicals formulated in a non-phytotoxic solvent mixture which included a surfactant.
(§3) At the same time, plants selected from these crop and weed species and also winter barley (Hordeum vulgare), canarygrass (Phalaris minor), chickweed (Stellaria media) and windgrass (Apera spica-venti) were treated with postemergence applications of some of the test chemicals formulated in the same manner. Plants ranged in height from 2 to 18 cm (1- to 4-leaf stage) for postemergence treatments.
(§4) Plant species in the flooded paddy test consisted of rice (Oryza sativa), umbrella sedge (Cyperus difformis), ducksalad (Heteranthera limosa) and barnyardgrass (Echinochloa crus-galli) grown to the 2-leaf stage for testing. At time of treatment, test pots were flooded to 3 cm above the soil surface, treated by application of test compounds directly to the paddy water, and then maintained at that water depth for the duration of the test. Treated plants and controls were maintained in a greenhouse for 13 to 15 days, after which time all species were compared to controls and visually evaluated. Plant response ratings, summarized in Table B, are based on a scale of 0 to 100 where 0 is no effect and 100 is complete control. A dash (-) response means no test result.

[8] = test system: yellow nutsedge (Cyperus esculentus); assay: Test B pre-/postemergence plant response
Source text: as §2, §3, §4

[9] = test system: catchweed bedstraw (Galium aparine); assay: Test B pre-/postemergence plant response; conditions: Preemergence
Source text: as §2, §3, §4

[10] = Postemergence, 31 g ai/ha, 0 to 100 scale (0 no effect, 100 complete control)
[11] = Postemergence, 125 g ai/ha, 0 to 100 scale, 0 no effect, 100 complete control
[12] = Preemergence, 31 g ai/ha, 0 to 100 scale, 0 is no effect, 100 is complete control
[13] = Preemergence, 125 g ai/ha, 0 to 100 scale (0 no effect, 100 complete control)
[14] = 8 g ai/ha, postemergence, 0-100 scale
[15] = Postemergence, 16 g ai/ha, scale 0 to 100
[16] = Postemergence, 31 g ai/ha, scale 0 to 100
[17] = Postemergence, 62 g ai/ha, scale 0 to 100, 0 no effect, 100 complete control
[18] = Preemergence, 8 g ai/ha, scale 0 to 100 (0 no effect, 100 complete control)
[19] = Preemergence, 31 g ai/ha, scale 0 to 100 (0 no effect, 100 complete control)
[20] = Preemergence, 62 g ai/ha, 0 to 100 scale, 0 no effect, 100 complete control
[21] = Preemergence, 16 g ai/ha, scale 0 to 100
[22] = 16 g ai/ha, postemergence, 0-100 scale
[23] = 31 g ai/ha, scale 0 to 100 (0 no effect, 100 complete control)
[24] = 62 g ai/ha, 0 to 100 scale, 0 no effect, 100 complete control
[25] = Preemergence, 8 g ai/ha, scale 0 to 100

Cc1nn(C)c(=O)c(-n2nc(-c3ccc(Br)cc3)cc2C)c1O [Compound 81]
85: Blackgrass plant response rating [7, 14] | Blackgrass plant response rating [7, 21]
50: Plant response rating, Wheat [1, 13] | Plant response rating, Corn [5, 13]
100: Plant response rating, Foxtail, Giant [2, 11] | Plant response rating, Foxtail, Giant [2, 13] | Plant response rating, Crabgrass, Large [4, 11] | Plant response rating, Crabgrass, Large [4, 13] | Plant response rating, Corn [5, 11] | Plant response rating, Barnyardgrass [6, 11] | Plant response rating, Barnyardgrass [6, 13] | Plant response rating, Blackgrass [7, 17] | Plant response rating, Blackgrass [7, 19] | Plant response rating, Blackgrass [7, 20]
90: Plant response rating, Crabgrass, Large [4, 10] | Plant response rating, Barnyardgrass [6, 10] | Plant response rating, Blackgrass [7, 15]
30: Plant response rating, Corn [5, 10] | Plant response rating, Corn [5, 12]
20: Plant response rating, Wheat [1, 12]
98: Plant response rating, Blackgrass [7, 16]
70: Plant response rating, Wheat [1, 11] | Plant response rating, Crabgrass, Large [4, 12] | Plant response rating, Barnyardgrass [6, 12]
80: Plant response rating, Foxtail, Giant [2, 10] | Plant response rating, Foxtail, Giant [2, 12] | Blackgrass plant response rating [7, 18]
0: Plant response rating, Wheat [1, 10] | Plant response rating, Pigweed [3, 10] | Plant response rating, Pigweed [3, 11] | Plant response rating, Pigweed [3, 12] | Plant response rating, Pigweed [3, 13] | Nutsedge, Yellow plant response rating [8, 14] | Nutsedge, Yellow plant response rating [8, 22] | Plant response rating, Nutsedge, Yellow [8, 16] | Plant response rating, Nutsedge, Yellow [8, 17] | Nutsedge, Yellow plant response rating [8, 18] | Plant response rating, Nutsedge, Yellow [8, 19] | Plant response rating, Nutsedge, Yellow [8, 20] | Nutsedge, Yellow plant response rating [8, 21] | Galium plant response rating ([9]; 8 g ai/ha, scale 0 to 100 (0 no effect, 100 complete control)) | Plant response rating, Galium [9, 23] | Plant response rating, Galium [9, 24] | Galium plant response rating ([9]; 16 g ai/ha, scale 0 to 100)

Cc1cc(-c2ccc(Cl)cc2)nn1-c1c(OC(=S)N(C)C)cnn(C)c1=O [Compound 69]
30: Plant response rating, Wheat [1, 11] | Plant response rating, Corn [5, 13]
100: Plant response rating, Foxtail, Giant [2, 11] | Plant response rating, Barnyardgrass [6, 11]
10: Blackgrass plant response rating [7, 14]
40: Plant response rating, Crabgrass, Large [4, 10] | Plant response rating, Blackgrass [7, 19]
35: Plant response rating, Blackgrass [7, 15] | Plant response rating, Blackgrass [7, 16]
90: Plant response rating, Foxtail, Giant [2, 10] | Plant response rating, Foxtail, Giant [2, 13] | Plant response rating, Crabgrass, Large [4, 13] | Plant response rating, Corn [5, 11] | Plant response rating, Barnyardgrass [6, 10] | Plant response rating, Blackgrass [7, 17]
80: Plant response rating, Crabgrass, Large [4, 11]
20: Plant response rating, Foxtail, Giant [2, 12] | Plant response rating, Corn [5, 12] | Plant response rating, Barnyardgrass [6, 12]
0: Plant response rating, Wheat [1, 10] | Plant response rating, Wheat [1, 12] | Plant response rating, Wheat [1, 13] | Plant response rating, Pigweed [3, 10] | Plant response rating, Pigweed [3, 11] | Plant response rating, Pigweed [3, 12] | Plant response rating, Pigweed [3, 13] | Plant response rating, Crabgrass, Large [4, 12] | Plant response rating, Blackgrass ([7]; Preemergence, 16 g ai/ha, scale 0 to 100 (0 no effect, 100 complete control)) | Blackgrass plant response rating [7, 25] | Nutsedge, Yellow plant response rating [8, 14] | Nutsedge, Yellow plant response rating [8, 22] | Plant response rating, Nutsedge, Yellow [8, 16] | Plant response rating, Nutsedge, Yellow [8, 17] | Plant response rating, Nutsedge, Yellow [8, 19] | Plant response rating, Nutsedge, Yellow [8, 20] | Nutsedge, Yellow plant response rating [8, 25] | Nutsedge, Yellow plant response rating [8, 21] | Plant response rating, Galium [9, 23] | Plant response rating, Galium [9, 24] | Galium plant response rating ([9]; 8 g ai/ha, scale 0 to 100) | Galium plant response rating ([9]; 16 g ai/ha, scale 0 to 100)
60: Plant response rating, Corn [5, 10]
70: Plant response rating, Barnyardgrass [6, 13] | Plant response rating, Blackgrass [7, 20]
